Test [1] relates to HCV genotype 1b replicon cell line (APC144; Huh7 cell background). The test can be described thus: HCV Genotype 1b Replicon Assay (Renilla luciferase readout). Type of test: cell-based. The note with it: Hepatitis C virus, Huh-7; read-out: Genotype 1b (pEC50 class, HCV genotype 1b replicon assay) (converted). The text has this: Assay 1: HCV Genotype 1b Replicon Assay
The HCV genotype 1b replicon cell line was obtained from Apath LLC (Brooklyn, N.Y.) (APC144; Huh7 cell background). This subgenomic replicon contains the N-terminus of the HCV core protein fused to the neomycin-resistance selectable marker. The EMCV IRES lies downstream and drives expression of humanized Renilla luciferase fused to the non-structural proteins NS3-NS5B. This cell line was used to determine compound potency using the luciferase activity readout as a measurement of compound inhibition of replicon levels.
(§1) Cells were grown at 37° C. in a 5% CO2 humidified incubator in DMEM (Invitrogen) with 10% FBS (HyClone), 1×NEAA (Invitrogen), 1× Pen-Strep (Invitrogen), and 500 μg/mL G418 (Invitrogen). On day 1 of the assay, cells were plated at 10,000 cells/well in white 96-well tissue culture plates (Costar) in 200 μL media lacking G418. Four hours later, once the cells have adhered, the media was removed and replaced with media (no G418) containing dose-responses of test compounds. Compounds were initially diluted in DMSO and then diluted another 200× in media to bring the final DMSO concentration down to 0.5%. The cells were incubated with test compounds for 48 hours. At the end of the incubation period, media and compound were removed from the plates and the luciferase activity was determined using Promega Renilla-Glo reagents.
To analyze the data, the luciferase activity was plotted vs. the compound concentration, and EC50 values were determined from a 4-parameter robust fit model with the GraphPad Prism software package (GraphPad Software, Inc., San Diego, Calif.). Results are expressed as the negative decadic logarithm of the EC50 value, pEC50.
Test compounds having a higher pEC50 value in this assay show greater inhibition of HCV genotype 1b replication.
On the technique in general: A replicon is a self-replicating genome or part of one, used to study replication in cells.

Test [2] concerns HCV genotype 1a replicon cell line (APC89; Huh7.5 cell background). In words: HCV Genotype 1a Replicon Assay (NS3-specific protease activity readout). The conditions noted are these: Hepatitis C virus. Type of test: cell-based. On the procedure:
Assay 2: HCV Genotype 1a Replicon Assay
The HCV genotype 1a replicon cell line was obtained from Apath LLC (APC89; Huh7.5 cell background). This subgenomic replicon contains the N-terminus of the HCV core protein fused to the neomycin-resistance selectable marker. The EMCV IRES lies downstream and drives expression of the non-structural proteins NS3-NS5B. Compound potencies were determined using the NS3-specific protease activity in lysates as a measurement of compound inhibition of replicon levels.
as §1, with “850” for “500”, “15,000” for “10,000”, “black” for “white”, “had” for “have”, “48 or 72” for “48”, “plates.” for “plates and the luciferase activity was determined using Promega Renilla-Glo reagents.”
To determine the NS3-specific protease activity in lysates, the cells were lysed at room temperature in 50 μL/well of 50 mM Hepes pH 7.5, 150 mM NaCl, 15% Glycerol, 0.15% Triton X-100, 10 mM DTT for 20 minutes with shaking. 50 μL of an NS3/4a protease-specific FRET substrate (Anaspec RET S1 Cat#22991) was then added to the wells at a final concentration of 15 μM. The plates were incubated at 37° C. for 20 minutes, which corresponds to a timepoint at which the protease activity is still in the linear phase. Protease activity was determined by measuring fluorescence (Excitation: 340 nm; Emission: 509 nm).
To analyze the data, the fluorescence was plotted vs. the compound concentration, and EC50 values were determined from a 4-parameter robust fit model using GraphPad Prism software.

The mark [3] stands for this setting: 72 hour incubation, read-out: Genotype 1a (pEC50 class, HCV genotype 1a replicon assay) (converted).

Read-outs that look alike come from different tables or passages of the source. Where only a bound is given, the exact number is not on record here.

For the compound `CNC(=O)N1CCN(c2ccc(C(=O)Nc3ccc(-c4ccc(-c5c[nH]c([C@@H]6CCCN6C(=O)[C@@H](NC(=O)OC)C(C)C)n5)cc4)c(C)c3)cn2)[C@H](C)C1` [Example 18], the EC50 in test [1] was less than 0.1 nM; in test [2] (setting [3]) it was 0.1 to 1 nM.

Turning to `COC(=O)N[C@H](C(=O)N1CCC[C@H]1c1nc(-c2ccc(-c3cc(Cl)c(NC(=O)c4ccc(N5CCN(C(=O)[C@]6(C)CCCN6C(=O)CN(C)C)C[C@H]5C)nc4)cc3OC(F)(F)F)cc2)c[nH]1)C(C)C` [Example 27-72], the EC50 in test [1] and in test [2] (setting [3]) was less than 0.1 nM throughout.

On to `COC(=O)N[C@H](C(=O)N1CCC[C@H]1c1nc(-c2ccc(-c3cc(Cl)c(NC(=O)c4ccc(N5CCN(C(=O)[C@H]6CC6(C)C)C[C@H]5C)nc4)cc3C(F)(F)F)cc2)c[nH]1)C(C)C` [Example 61, [(S)-1-((S)-2-{4-[5′-Chloro-4′-({6-[(R)-4-((S)-2,2-dimethyl-cyclopropanecarbonyl)-2-methyl-piperazin-1-yl]-pyridine-3-carbonyl}-amino)-2′-trifluoromethyl-biphenyl-4-yl]-1H-imidazol-2-yl}-pyrrolidine-1-carbonyl)-2-methyl-propyl]-carbamic acid methyl ester], for which the EC50 in test [1] and in test [2] (setting [3]) was less than 0.1 nM throughout.

For `COC(=O)N[C@H](C(=O)N1CCC[C@H]1c1nc(-c2ccc(-c3ccc(NC(=O)c4ccc(N5CCN(C(=O)[C@]6(C)CCCN6C(C)=O)C[C@H]5C)nc4)cc3C)cc2)c[nH]1)C(C)C` [Example 15, [(S)-1-((S)-2-{5-[4′-({6-[(R)-4-((S)-1-Acetyl-2-methyl-pyrrolidine-2-carbonyl)2-methyl-piperazin-1-yl]-pyridine-3-carbonyl}-amino)-2′-methyl-biphenyl-4-yl]-1H-imidazol-2-yl}-pyrrolidine-1-carbonyl)-2-methyl-propyl]-carbamic acid methyl ester], the EC50 in test [1] and in test [2] (setting [3]) was less than 0.1 nM throughout.

With `COC(=O)N[C@H](C(=O)N1CCC[C@H]1c1nc(-c2ccc(-c3cc(Cl)c(NC(=O)c4ccc(N5CCN(C(=O)[C@]6(C)CCCN6C(=O)[C@@H](NC(=O)OC)C(C)C)C[C@H]5C)nc4)cc3C(F)(F)F)cc2)c[nH]1)C(C)C` [Example 62], the EC50 in test [1] and in test [2] (setting [3]) was less than 0.1 nM each time.

Turning to `COC(=O)N[C@H](C(=O)N1CCC[C@H]1c1nc(-c2ccc(-c3ccc(NC(=O)c4ccc(N5CCN(C(=O)C6CC6)CC5)nc4)cc3)cc2)c[nH]1)C(C)C` [Example 5, ((S)-1-{(S)-2-[4-(4′-{[6-(4-Cyclopropanecarbonyl-piperazin-1-yl)-pyridine-3-carbonyl]-amino}-biphenyl-4-yl)-1H-imidazol-2-yl]-pyrrolidine-1-carbonyl}-2-methyl-propyl)-carbamic acid methyl ester], the EC50 in test [1] was less than 0.1 nM; in test [2] (setting [3]), 1 to 10 nM.

As for `CNC(=O)N1CCN(c2ccc(C(=O)Nc3ccc(-c4ccc(-c5c[nH]c([C@@H]6CCCN6C(=O)[C@@H](NC(=O)OC)C(C)C)n5)cc4)cc3)cn2)CC1` [Example 10, ((S)-2-Methyl-1-{(S)-2-[4-(4′-{[6-(4-methylcarbamoyl-piperazin-1-yl)-pyridine-3-carbonyl]-amino}-biphenyl-4-yl)-1H-imidazol-2-yl]-pyrrolidine-1-carbonyl}-propyl)-carbamic acid methyl ester], the EC50 is less than 0.1 nM in test [1] and 0.1 to 1 nM in test [2] (compounds incubated for 48 hours, read-out: Genotype 1a (pEC50 class, HCV genotype 1a replicon assay), * results (converted)).

With `COC(=O)N[C@H](C(=O)N1CCC[C@H]1c1nc(-c2ccc(-c3cc(F)c(NC(=O)c4ccc(N5CCN(C(=O)[C@]6(C)CCCN6C(=O)NC(C)C)C[C@H]5C)nc4)cc3OC(F)(F)F)cc2)c[nH]1)C(C)C` [Example 27-43], the EC50 in test [1] and in test [2] (setting [3]) was less than 0.1 nM each time.

As to `CNC(=O)N1C[C@@H](C)N(c2ccc(C(=O)Nc3ccc(-c4ccc(-c5c[nH]c([C@@H]6CCCN6C(=O)[C@@H](NC(=O)OC)C(C)C)n5)cc4)c(OC(F)(F)F)c3)cn2)C[C@@H]1C` [Example 29, ((S)-1-{(S)-2-[4-(4′-{[6-((2R,5S)-2,5-Dimethyl-4-methylcarbamoyl-piperazin-1-yl)-pyridine-3-carbonyl]-amino}-2′-trifluoromethoxy-biphenyl-4-yl)-1H-imidazol-2-yl]-pyrrolidine-1-carbonyl}-2-methyl-propyl)-carbamic acid methyl ester], the EC50 in test [1] and in test [2] (setting [3]) was less than 0.1 nM each time.

With `COC(=O)N[C@H](C(=O)N1CCC[C@H]1c1nc(-c2ccc(-c3c(F)cc(NC(=O)c4ccc(N5CCN(C(=O)[C@H]6CC6(C)C)C[C@H]5C)nc4)cc3F)cc2)c[nH]1)C(C)C` [Example 41, [(S)-1-((S)-2-{5-[4′-({6-[(R)-4-((S)-2,2-Dimethyl-cyclopropanecarbonyl)-2-methyl-piperazin-1-yl]-pyridine-3-carbonyl}-amino)-2′,6′-difluoro-biphenyl-4-yl]-1H-imidazol-2-yl}-pyrrolidine-1-carbonyl)-2-methyl-propyl]-carbamic acid methyl ester], the EC50 in test [1] and in test [2] (setting [3]) was less than 0.1 nM each time.

Take `COC(=O)N[C@H](C(=O)N1CCC[C@H]1c1nc(-c2ccc(-c3ccc(NC(=O)c4ccc(N5C[C@H](C)N(C(=O)[C@]6(C)CCCN6C(=O)[C@@H](NC(=O)OC)C(C)C)C[C@H]5C)nc4)cc3C)c(C)c2)c[nH]1)C(C)C` [Example 40]: the EC50 in test [1] was less than 0.1 nM; in test [2] (setting [3]) it was 0.1 to 1 nM.

As for `CNC(=O)N1C[C@@H](C)N(c2ccc(C(=O)Nc3cc(C(F)(F)F)c(-c4ccc(-c5c[nH]c([C@@H]6CCCN6C(=O)[C@@H](NC(=O)OC)C(C)C)n5)cc4)cc3Cl)cn2)C[C@@H]1C` [Example 64], the EC50 in test [1] and in test [2] (setting [3]) was less than 0.1 nM in each case.

Take `COC(=O)N[C@H](C(=O)N1CCC[C@H]1c1nc(-c2ccc(-c3ccc(NC(=O)c4ccc(N5CCN(C(=O)[C@H]6CC6(C)C)C[C@H]5C)nc4)cc3F)c(F)c2)c[nH]1)C(C)C` [Example 50, [(S)-1-((S)-2-{4-[4′-({6-[(R)-4-((S)-2,2-dimethyl-cyclopropanecarbonyl)-2-methyl-piperazin-1-yl]-pyridine-3-carbonyl}-amino)-2,2′-difluoro-biphenyl-4-yl]-1H-imidazol-2-yl}-pyrrolidine-1-carbonyl)-2-methyl-propyl]-carbamicacid methyl ester]: the EC50 in test [1] and in test [2] (setting [3]) was less than 0.1 nM in each case.

As to `COC(=O)N[C@H](C(=O)N1CCC[C@H]1c1nc(-c2ccc(-c3ccc(NC(=O)c4ccc(N5C[C@H](C)N(C(=O)[C@H]6CC6(C)C)C[C@H]5C)nc4)c(C)n3)cc2)c[nH]1)C(C)C` [Example 71, {(S)-1-[(S)-2-(4-{4-[5-({6-[(2R,5S)-4-((S)-2,2-Dimethyl-cyclopropanecarbonyl)-2,5-dimethyl-piperazin-1-yl]-pyridine-3-carbonyl}-amino)-6-methyl-pyridin-2-yl]-phenyl}-1H-imidazol-2-yl)-pyrrolidine-1-carbonyl]-2-methyl-propyl}-carbamic acid methyl ester], the EC50 is less than 0.1 nM in test [1] and 0.1 to 1 nM in test [2] (setting [3]).

In the case of `COC(=O)N[C@H](C(=O)N1CCC[C@H]1c1nc(-c2ccc(-c3ccc(C(=O)Nc4ccc(N5CCN(C(=O)[C@]6(C)CCCN6C(=O)CO)C[C@H]5C)nc4)cc3OC(F)(F)F)cc2)c[nH]1)C(C)C` [Example 68], the results for the EC50 in test [1] and in test [2] (setting [3]) were less than 0.1 nM and 0.1 to 1 nM, respectively.

These data come from patent US8921372B2, “Inhibitors of hepatitis C virus” (Theravance Biopharma R&D IP, LLC, priority 2010, dated 2014).
